These results are taken from patent US6750228B1, “Aromatic sulfone hydroxamic acid metalloprotease inhibitor” (priority 1997, dated 2004).

One may read the IC50 as the midpoint of a concentration-inhibition curve.

For assay [1], the target named is T1, MMP-13 (Homo sapiens, UniProt P45452).
T1 construct: made in house; host or cells: baculovirus / insect cells
Put plainly: biochemical. The conditions noted are these: recombinant human MMP-13, MCA peptide substrate 4 μM, pH 7.5, room temperature; read-out: MMP-13 IC50. A digest of the protocol:
(§1)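 Assay buffer 100 mM Tris-HCl, 100 mM NaCl, 10 mM CaCl2, pH 7.5. Activated MMP + inhibitor, 5 min RT; then methoxycoumarin peptide substrate, 4 μM final. Readout fluorescence; IC50 calculated.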

Assay [2] deals with T2, MMP-1 (Homo sapiens, UniProt P03956).
T2 construct: made in house; host or cells: transfected HT-1080 cells (provided by Dr. Harold Welgus, Washington University)
T2 sequence (P03956 100-469): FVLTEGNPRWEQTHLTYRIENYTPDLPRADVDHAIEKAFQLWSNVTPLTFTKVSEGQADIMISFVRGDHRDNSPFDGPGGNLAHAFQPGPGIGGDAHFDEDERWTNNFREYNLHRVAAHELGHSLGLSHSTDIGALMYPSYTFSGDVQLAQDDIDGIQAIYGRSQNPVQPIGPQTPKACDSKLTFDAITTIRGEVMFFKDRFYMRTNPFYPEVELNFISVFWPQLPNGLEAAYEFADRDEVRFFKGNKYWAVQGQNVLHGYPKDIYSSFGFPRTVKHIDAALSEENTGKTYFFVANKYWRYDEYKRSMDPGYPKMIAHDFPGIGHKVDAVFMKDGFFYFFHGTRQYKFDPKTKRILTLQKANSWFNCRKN
Put plainly: biochemical. The conditions noted are these: recombinant human MMP-1, MCA peptide substrate 4 μM, pH 7.5, room temperature; read-out: MMP-1 IC50. The procedure, abridged:
as §1

The target in assay [3] is T3, MMP-2 (Homo sapiens, UniProt P08253).
T3 construct: made in house; provided by Dr. Gregory Goldberg, Washington University
T3 sequence (P08253 110-660): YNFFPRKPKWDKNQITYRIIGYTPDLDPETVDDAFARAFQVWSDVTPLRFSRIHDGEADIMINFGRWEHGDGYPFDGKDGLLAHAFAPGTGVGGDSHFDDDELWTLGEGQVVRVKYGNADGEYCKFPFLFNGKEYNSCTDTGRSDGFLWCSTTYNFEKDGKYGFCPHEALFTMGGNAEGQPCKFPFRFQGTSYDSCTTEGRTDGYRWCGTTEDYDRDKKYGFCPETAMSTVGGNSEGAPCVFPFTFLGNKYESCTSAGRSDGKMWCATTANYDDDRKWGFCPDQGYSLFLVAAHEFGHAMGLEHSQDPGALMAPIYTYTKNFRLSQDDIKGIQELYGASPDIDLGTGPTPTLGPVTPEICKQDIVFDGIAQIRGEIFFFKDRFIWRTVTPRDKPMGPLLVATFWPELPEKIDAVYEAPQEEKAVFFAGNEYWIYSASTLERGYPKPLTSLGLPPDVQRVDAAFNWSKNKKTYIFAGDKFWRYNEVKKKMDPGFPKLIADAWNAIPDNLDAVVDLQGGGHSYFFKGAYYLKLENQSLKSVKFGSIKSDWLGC
Put plainly: biochemical. The following applies: recombinant human MMP-2, MCA peptide substrate 4 μM, pH 7.5, room temperature; read-out: MMP-2 IC50. A digest of the protocol: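 APMA- or trypsin-activated enzymes were preincubated with inhibitor for 5 min at room temperature, then the fluorogenic substrate MCA-Pro-Leu-Gly-Leu-Dpa-Ala-Arg-NH2 was added to a final 4 μM.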

Assay [4] has as its target T4, MMP-7 (Homo sapiens, UniProt P09237).
T4 construct: made in house; host or cells: E. coli (clone a gift of Dr. Steven Shapiro, Washington University)
T4 sequence (P09237 95-267): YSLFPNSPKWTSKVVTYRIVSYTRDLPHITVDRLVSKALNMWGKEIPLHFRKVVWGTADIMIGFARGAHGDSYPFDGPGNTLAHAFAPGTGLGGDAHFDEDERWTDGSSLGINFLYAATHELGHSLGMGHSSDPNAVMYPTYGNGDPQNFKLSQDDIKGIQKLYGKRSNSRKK
Put plainly: In vitro metalloprotease inhibition, pH 7.5 with 0.02% 2-mercaptoethanol. The conditions noted are these: selectively inhibit one or more of MMP-2, MMP-9 and MMP-13. Format: biochemical. The procedure: The compounds prepared in the manner described in the Examples above were assayed for activity by an in vitro assay. […] Briefly, 4-aminophenylmercuric acetate (APMA) or trypsin-activated MMPs were incubated with various concentrations of the inhibitor compound at room temperature for 5 minutes.
MMP-1 expressed in transfected HT-1080 cells was provided by Dr. Harold Welgus of Washington University, St. Louis, Mo. The enzyme was also activated using APMA and was then purified over a hydroxamic acid column. Dr. Welgus also provided transfected HT-1080 cells that expressed MMP-9. Transfected cells that expressed MMP-2 were provided by Dr. Gregory Goldberg, also of Washington University. Studies with MMP-7 were carried out at pH 7.5 in the presence of 0.02% 2-mercaptoethanol using conditions otherwise similar to those used for the other enzymes. […]
In the absence of inhibitor activity, a fluorogenic peptide was cleaved at the gly-leu peptide bond, separating the highly fluorogenic peptide from a 2,4-dinitrophenyl quencher, resulting in an increase of fluorescence intensity (excitation at 328 nm/emission at 415 nm). Inhibition was measured as a reduction in fluorescent intensity as a function of inhibitor concentration, using a Perkin Elmer L550 plate reader. The IC50 values were calculated from those values. […]

SMILES strings stand for the structures.

As for `N#Cc1cccc(S(=O)(=O)N2CCN(c3ccc(S(=O)(=O)C4(C(=O)NO)CCOCC4)cc3)CC2)c1` [Example 672], the IC50 in assay [1] was 6.7 nM; in assay [2], over 10000 nM; in assay [3], 60 nM. Also, the “inhibition of MMP-7 compared with MMP-2, MMP-9 and MMP-13 (selectivity)” value in assay [4] was “substantially less inhibition”.

For `Cn1cnc(S(=O)(=O)N2CCN(c3ccc(S(=O)(=O)C4(C(=O)NO)CCOCC4)cc3)CC2)c1` [Example 684], the IC50 in assay [1] was 60 nM; in assay [2], over 10000 nM; in assay [3], 1450 nM. Also, the “inhibition of MMP-7 compared with MMP-2, MMP-9 and MMP-13 (selectivity)” value in assay [4] is “substantially less inhibition”.
